# Test results reported in patent US20260115298A1, “PTH Treatment Regimen Comprising Two PTH Compounds” (priority 2022, published 2026).
# Like-named read-outs stand apart in the source and are kept apart here.
# Columns and labels:
# endogenous PTH 1-84 = conditions: healthy volunteers, no further suppression at higher doses, cited from earlier work
# [1] = tested on: individuals with hypoparathyroidism; format: in vivo, human; conditions: for Active Vitamin D dose / Calcium supplement dose / Serum Calcium: mean of Compound 1 group
# Text: PaTHway is a phase 3, multicenter (North America and Europe), randomized, double-blind, placebo-controlled, parallel-group, 26-week trial with an open-label extension of 156 weeks that evaluated the efficacy, safety, and tolerability of once-daily Compound 1 as PTH replacement therapy in individuals with hypoparathyroidism. All participants who completed the 26- week blinded treatment period were allowed to enroll in the 156-week open-label extension period. (ClinicalTrials.gov identifier: NCT04701203; EudraCT No.: 2020-003380-26).
# Once enrolled, participants were randomized 3:1 into 2 treatment groups: Compound 1 18 μg PTH(1-34)/day or placebo (excipient solution) mimicking 18 μg/day, both co-administered with conventional therapy (active vitamin D and elemental calcium).
# Randomization was stratified by etiology of hypoparathyroidism (postsurgical vs. non-surgical). In addition to frequent laboratory visits to measure serum calcium levels, the blinded treatment period included 10 clinic visits over 26 weeks. Once-daily treatment with Compound 1 or placebo was delivered by a modified Ypsomed UnoPen Fix pen injector using 31-gauge, 5 mm pen needles to deliver doses of 6-30 μg/injection in a volume of ≤100 μL to either abdomen or anterior thigh, rotating injection sites.
# All participants were initially prescribed Compound 1 18 μg PTH(1-34)/day or a corresponding volume of placebo and were individually and progressively titrated to an optimal dose (allowable range 6-60 μg/day) in increments of 3 μg/day. Titration of study drug and conventional therapy was performed according to a protocol-specified algorithm guided by serum calcium values (Example 2). The algorithm was intended to facilitate independence from conventional therapy by discontinuation of active vitamin D and calcium in response to reestablishment of physiological PTH signaling with Compound 1 treatment. In the setting of normocalcemia, the protocol directs incremental increases in study drug (Compound 1 or placebo) accompanied by stepwise reductions of active vitamin D by 33-50% of the starting dose, followed by reductions of calcium in at least 1500 mg/day increments once vitamin D has been discontinued.
# Participants were permitted to take elemental calcium <600 mg/day as a nutritional supplement if required to meet the generally recommended dietary intakes of calcium.
# Treatment with Compound 1 was carried out in accordance with Example 1.
substance,measurement,setting,value
"Compound 5: polypeptide having the sequence AVAEIQLMHQRAKWIQDARR RAFLHKLIAEIHTAEI, SEQ ID NO:122 (AVAEIQLMHQRAKWIQDARRRAFLHKLIAEIHTAEI; Artificial random coil) [reference compound]",dose able to suppress endogenous PTH 1-84,endogenous PTH 1-84; daily dosing,60 µg
palopegteriparatide [Compound 1],time to complete discontinuation of active vitamin D,[1]; Compound 1 group,≤ 8 weeks
same,SAEs considered related to treatment,[1]; in vivo,one
same,participants reporting SAEs,[1]; in vivo,8.2%
same,Active Vitamin D dose,[1]; week 0,0.992 µg
same,Calcium supplement dose,[1]; week 0,1748.03 mg
same,Serum Calcium,[1]; week 0,8.8 mg/dL
same,Active Vitamin D dose,[1]; week 2,0.098 µg
same,Calcium supplement dose,[1]; week 2,1524.1 mg
same,Serum Calcium,[1]; week 2,9.8 mg/dL
same,Active Vitamin D dose,[1]; week 4,0.008 µg
same,Calcium supplement dose,[1]; week 4,548.77 mg
same,Serum Calcium,[1]; week 4,9.6 mg/dL
same,Active Vitamin D dose,[1]; week 6,0.004 µg
same,Calcium supplement dose,[1]; week 6,229.1 mg
same,Serum Calcium,[1]; week 6,9.7 mg/dL
same,Active Vitamin D dose,[1]; week 8,0 µg
same,Calcium supplement dose,[1]; week 8,105.74 mg
same,Serum Calcium,[1]; week 8,9.5 mg/dL
same,Active Vitamin D dose,[1]; week 10,0 µg
same,Calcium supplement dose,[1]; week 10,114.17 mg
same,Serum Calcium,[1]; week 10,9.5 mg/dL
same,Active Vitamin D dose,[1]; week 12,0 µg
same,Calcium supplement dose,[1]; week 12,102.46 mg
same,Serum Calcium,[1]; week 12,9.5 mg/dL
same,Active Vitamin D dose,[1]; week 16,0 µg
same,Calcium supplement dose,[1]; week 16,182.38 mg
same,Serum Calcium,[1]; week 16,9.3 mg/dL
same,Active Vitamin D dose,[1]; week 20,0 µg
same,Calcium supplement dose,[1]; week 20,300.83 mg
same,Serum Calcium,[1]; week 20,9.3 mg/dL
same,Active Vitamin D dose,[1]; week 26,0 µg
same,Calcium supplement dose,[1]; week 26,274.17 mg
same,Serum Calcium,[1]; week 26,8.9 mg/dL
same,mean serum calcium (sCa) levels,"[1]; when adequately titrated, all study visits",in the normal range
same,dose that fully suppresses endogenous PTH 1-84,endogenous PTH 1-84,16 µg/day
